Test results from patent US7892767B2, “Phosphospecific chemokine receptor antibodies” (Washington University in St. Louis, priority 2005, dated 2011).

How the values were obtained:
Nf1−/− astrocytes [1] = test: Cell number by trypan blue exclusion, Nf1−/− astrocytes; assay type: cell-based, mouse; details: data not shown
Protocol: (§1) Culture and treatment of primary astrocytes. Primary cultures of astrocytes were prepared from post-natal day two Nf1^flox/flox mice as previously described (134) and in accordance with established Animal Studies Protocols at Washington University School of Medicine. Cultures were infected with adenovirus containing either Cre recombinase (Nf1−/−) or LacZ (Nf1+/+). Primary cultures of astrocytes were grown under standard adherent conditions in serum free media (DMEM/F12 or Neurobasal (Gibco-BRL)) in the presence or absence of 0.1 μg/ml CXCL12 (Peprotech) and 10 μM Forskolin for 24 hours, as indicated. Cell number was determined after 24 hours by trypan blue exclusion and the growth effects of CXCL12 were derived as follows: ((cell number in the presence of CXCL12—cell number cell in the absence of CXCL12)/cell number in the absence of CXCL12)×100.)
(§2) To determine the biological significance of CXCR4 activation to NF1 glioma biology, we next sought to evaluate the regulation of CXCL12 growth effects by neurofibromin in astrocytes. While the true cell of origin of astrocytomas remains unknown, we utilized primary cultures of cortical astrocytes as a model of a normal counterpart to astrocytoma cells. Astrocytes were derived from Nf1^flox/flox mice and rendered Nf1+/+ or Nf1−/− by infection with adenovirus encoding LacZ or Cre recombinase, respectively.

Nf1+/+ astrocytes [2] = test: Cell number by trypan blue exclusion, Nf1+/+ astrocytes; assay type: cell-based, mouse; details: data not shown
Protocol: as §1, §2

CXCR4 = CXCR4 (Homo sapiens, UniProt P61073); test: Stimulated CXCR4 phosphorylation in LN428 GBM cells (western blot); assay type: cell-based; design: lysates from the glioblastoma cell line LN428, which is known to express high levels of CXCR4; endogenous in cells; host or cells: LN428 GBM cell line
Chain of CXCR4 (P61073 whole entry): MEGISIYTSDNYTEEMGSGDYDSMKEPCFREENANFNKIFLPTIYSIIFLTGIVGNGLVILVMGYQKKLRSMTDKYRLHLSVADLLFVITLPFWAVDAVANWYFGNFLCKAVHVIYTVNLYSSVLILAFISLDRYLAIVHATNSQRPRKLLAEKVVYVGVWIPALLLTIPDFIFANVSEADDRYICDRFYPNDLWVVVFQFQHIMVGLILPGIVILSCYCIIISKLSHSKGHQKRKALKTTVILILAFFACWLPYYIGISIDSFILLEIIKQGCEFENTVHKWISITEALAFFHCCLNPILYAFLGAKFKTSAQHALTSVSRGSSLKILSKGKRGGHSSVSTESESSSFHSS
Protocol: Cell Culture, transfections and stimulation of CXCR4 phosphorylation. The U87 glioblastoma multiforme (GBM, grade IV) cell line was obtained from the American Type Culture Collection. The LN428 GBM cell line was a kind gift of Dr Erwin van Meir (Winship Cancer Center, Emory University, Atlanta, Ga.). U87 cells were grown in minimum essential a media supplemented with 10% fetal bovine serum ((FBS), Biomedia, Foster City, Calif.). LN428 cells were grown in DMEM (Fisher, Pittsburgh, Pa.) supplemented with 10% horse serum (Sigma). All cells were grown in the presence of penicillin-streptomycin. The coding sequence for human CXCR4 was obtained by high fidelity RT-PCR (Superscript III Platinum, Invitrogen), and cloned into the expression vector pMSCVneo (Clontech, Palo Alto, Calif.). Transfections were performed with 0.3 μg of plasmid DNA in 20 μl Lipofectamine (Invitrogen)/35 mm^2 tissue culture dish for 9 hours according to the manufacturer's instructions. Cells recovered in Optimem supplemented with 10% FBS. Transfected and non-transfected cells were placed in serum free media for 24 hours prior to treatment with agents to stimulate CXCR4 phosphorylation. Treatment was usually for 0 or 10 minutes with 1 μg/ml CXCL12 (Peprotech, Rocky Hill N.J.), 4 μM 4-Phorbol 12-myristate 13-acetate (PMA) or 10 nM EGF. In some experiments, CXCL12 was washed away and cells were incubated for an additional 20 minutes in serum free media alone.
Western Blot Analysis. Whole-cell extracts were obtained by lysing cells with lysis buffer (20 mM Tris pH 7.4, 137 mM NaCl, 10% Glycerol and 1% Triton X-100) supplemented with phosphatase inhibitor cocktail set II (Calbiochem, La Jolla, Calif.) and protease inhibitors PMSF (1 mM), leupeptin (0.005 mg/ml) and aprotonin (0.005 mg/ml). The proteins (50-75 μg) were resolved with 10% Bis-Tris gels (Invitrogen) and transferred onto the nitrocellulose membrane Hybond ECL (Amersham, Piscataway, N.J.) according to standard protocols. Polyclonal anti-CXCR4 antibody was used at a 1:500 dilution and P338-CXCR4 and P339-CXCR4 directed antibodies were used at 1:100 dilutions overnight at 4° C. This was followed by incubation with horseradish peroxidase-conjugated secondary antibody (1:15,000; Bio-Rad). Peroxide activity was detected using the enhanced chemiluminescence Supersignal West Dura system (Pierce, Rockford, Ill.). Mouse anti-actin antibody at a concentration of 1:1500 was used as a loading control. Peptide competitions and lambda phosphatase treatment were performed as described above.
The utility of these antibodies for evaluating the relationship between ligand binding and CXCR4 function is dependent upon their ability to distinguish a ligand activated form of the receptor. Serum starvation increased CXCL12 responsiveness (data not shown), and for all of these experiments LN428 GBM cells were serum starved for 24 hours prior to CXCL12 treatment. Serum starved LN428 cells were treated with 1 μg/ml CXCL12 for 0 or 10 minutes and the abundance of phospho-CXCR4 was determined by western blot and immuno-localization in fixed cells. […] A similar CXCL12-induced increase in P339-CXCR4 (FIG. 3B), but not P338-CXCR4 (data not shown) immunoreactivity was seen by immunofluorescent analysis of paraformaldehyde fixed cells. After 10 minutes of exposure to CXCL12, P339-CXCR4 can be seen localized to the surface of LN428 cells (FIG. 3B). CXCL12 was then washed away and cells were incubated in its absence for an additional 20 minutes. Surface labeling declined as a function of time and P339-CXCR4 was seen accumulating intracellularly.
Whether this is the only kinase that can phosphorylate these residues is unclear. The observation that protein kinase C (PKC) stimulated CXCR4 internalization also depends upon phosphorylation of this region of the molecule raises the question of whether these sites might also be PKC phosphorylation sites (17, 19, 27, 28). […]

U87 GBM xenografts = details: systemic delivery, reference (3); cited from earlier work
Daoy xenografts = details: systemic delivery, reference (3); cited from earlier work
[3] = reference (94), cited from earlier work
Nf1−/− astrocytes [4] = test: Intracellular cAMP by ELISA, Nf1−/− astrocytes; assay type: cell-based, mouse
Protocol: (§3) cAMP measurements. cAMP was measured by ELISA (Cayman Chemical Company, Ann Arbor, Mich. or Assay Designs, Ann Arbor, Mich.). Briefly, astrocyte cultures were lysed in 0.1 N HCl. After the removal of cellular debris, soluble cellular extract was dried down and resuspended in EIA buffer. Experimental samples and cAMP standard curve were acetylated to increase the sensitivity of the assay and incubated with cAMP ACHe tracer and cAMP EIA anti-serum overnight at 4° C. according to the manufacturer's instructions. After extensive washing, bound antibody was measured by spectrophotometric analysis. Concentrations of cAMP were derived from comparison with standard curve according to manufacturer's instructions.
(§4) We evaluated the time dependent changes in intracellular cAMP in Nf1+/+ and Nf1−/− astrocytes after exposure to 0.1 μg/ml CXCL12. […] However, in Nf1+/+ astrocytes, intracellular levels of cAMP rapidly recovered to baseline and oscillated between baseline and 40% of baseline over the 45-minute experimental period (FIG. 10B).
(§5) We hypothesized that if cooperative signaling between Nf1 loss and CXCR4 activation promotes tumor formation through the suppression of cAMP, then agents that alter intracellular cAMP should modulate CXCL12 responses. We treated astrocytes with the adenylyl cyclase (AC) activator forskolin in the presence and absence of CXCL12. […] In these experiments, forskolin elevated intracellular cAMP levels in both Nf1+/+ and Nf1−/− astrocytes with peak values of 17.8+/−0.4 and 19.4+/−4.5 pmol/mg of protein, respectively, after 24 hours of treatment. The effect of forskolin was not abrogated by co-treatment with CXCL12. Under these conditions, cAMP levels were 17.9+/−2.5 and 10.4+/−5.8 pmol/mg of total protein in Nf1+/+ and Nf1−/− astrocytes, respectively. […] The effect of forskolin on CXCL12-mediated Nf1−/− apoptosis was evidenced by changes in the percentage of Nf1−/− astrocytes in the sub-G0 fraction of the cell cycle (FIG. 11B). Thus while astrocyte growth is dependent upon MEK and PI3 kinase activity, CXCL12-induced Nf1−/− astrocyte growth requires the suppression of intracellular cAMP levels.

Nf1+/+ astrocytes [5] = test: Intracellular cAMP by ELISA, Nf1+/+ astrocytes; assay type: cell-based, mouse
Protocol: as §3, §4, §5

[6] = 1 μg/ml CXCL12, 4 μM PMA or 10 nM EGF
[7] = forskolin 10 μM co-treatment with CXCL12 0.1 μg/ml

COc1cccc(-c2cc(=O)c3ccccc3o2)c1N [PD98059]
astrocyte growth (Nf1−/− astrocytes [1]): prevented growth | astrocyte growth (Nf1+/+ astrocytes [2]): prevented growth

CCCCCCCCCCCCCC(=O)O[C@@H]1[C@@H](C)[C@@]2(O)[C@@H](C=C(CO)C[C@]3(O)C(=O)C(C)=C[C@@H]23)[C@@H]2C(C)(C)[C@]12OC(C)=O [PMA, 4-Phorbol 12-myristate 13-acetate]
P338 phosphorylation stimulated (CXCR4; [6]): not | P339 phosphorylation (CXCR4; [6]): stimulated | P339-CXCR4 immunoreactivity compared with response to CXCL12 (CXCR4; 4 μM PMA or 10 nM EGF): greater

c1cc(CN2CCCNCCNCCCNCC2)ccc1CN1CCCNCCNCCCNCC1 [AMD 3100]
intracranial growth of glioblastoma xenografts (U87 GBM xenografts): blocked the intracranial growth | intracranial growth of medulloblastoma xenografts (Daoy xenografts): blocked the intracranial growth | toxicities ([3]; sustained dosing over a 10 day period): mild toxicities | white blood cell counts ([3]; throughout an 18 day follow-up period after cessation): elevations of white blood cell counts

C=C[C@@]1(C)CC(=O)[C@]2(O)[C@@]3(C)[C@@H](O)CCC(C)(C)[C@@H]3[C@H](O)[C@H](OC(C)=O)[C@@]2(C)O1 [forskolin]
cAMP levels (Nf1−/− astrocytes [4]; [7]): 10.4+/−5.8 pmol/mg of total protein | peak intracellular cAMP (Nf1−/− astrocytes [4]; forskolin 10 μM, 24 hours): 19.4+/−4.5 pmol/mg of protein | cAMP levels (Nf1+/+ astrocytes [5]; [7]): 17.9+/−2.5 pmol/mg of total protein | peak intracellular cAMP (Nf1+/+ astrocytes [5]; forskolin 10 μM, 24 hours): 17.8+/−0.4 pmol/mg of protein
